The text below walks through data of ChEMBL document CHEMBL4033665, “Synthesis and applications of benzohydroxamic acid-based histone deacetylase inhibitors” (Eur J Med Chem, 2017).

One test addresses Histone deacetylase 4 (Homo sapiens, UniProt P56524). Briefly: Inhibition of HDAC4 (unknown origin) by fluorescence assay.
The target of test [1] is T1, Histone deacetylase 1 (Homo sapiens, UniProt Q13547). Briefly: Inhibition of HDAC1 (unknown origin) by fluorescence assay.
The target in test [2] is T2, Histone deacetylase 8 (Homo sapiens, UniProt Q9BY41).
T2 sequence (Q9BY41 whole entry): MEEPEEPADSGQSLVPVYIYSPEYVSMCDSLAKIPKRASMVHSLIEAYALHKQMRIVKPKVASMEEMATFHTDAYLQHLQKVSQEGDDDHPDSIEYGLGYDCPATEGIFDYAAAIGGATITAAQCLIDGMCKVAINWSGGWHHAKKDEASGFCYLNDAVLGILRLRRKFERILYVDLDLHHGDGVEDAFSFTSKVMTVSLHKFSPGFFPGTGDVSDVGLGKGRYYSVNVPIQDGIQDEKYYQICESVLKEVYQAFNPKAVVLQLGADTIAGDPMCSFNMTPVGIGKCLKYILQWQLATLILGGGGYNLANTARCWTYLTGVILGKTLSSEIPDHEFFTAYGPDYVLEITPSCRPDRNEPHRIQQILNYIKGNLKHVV
The test can be described thus: Inhibition of HDAC8 (unknown origin) by fluorescence assay.

The target in test [3] is T3, Protein deacetylase HDAC6 (Homo sapiens, UniProt Q9UBN7).
T3 sequence (Q9UBN7 whole entry): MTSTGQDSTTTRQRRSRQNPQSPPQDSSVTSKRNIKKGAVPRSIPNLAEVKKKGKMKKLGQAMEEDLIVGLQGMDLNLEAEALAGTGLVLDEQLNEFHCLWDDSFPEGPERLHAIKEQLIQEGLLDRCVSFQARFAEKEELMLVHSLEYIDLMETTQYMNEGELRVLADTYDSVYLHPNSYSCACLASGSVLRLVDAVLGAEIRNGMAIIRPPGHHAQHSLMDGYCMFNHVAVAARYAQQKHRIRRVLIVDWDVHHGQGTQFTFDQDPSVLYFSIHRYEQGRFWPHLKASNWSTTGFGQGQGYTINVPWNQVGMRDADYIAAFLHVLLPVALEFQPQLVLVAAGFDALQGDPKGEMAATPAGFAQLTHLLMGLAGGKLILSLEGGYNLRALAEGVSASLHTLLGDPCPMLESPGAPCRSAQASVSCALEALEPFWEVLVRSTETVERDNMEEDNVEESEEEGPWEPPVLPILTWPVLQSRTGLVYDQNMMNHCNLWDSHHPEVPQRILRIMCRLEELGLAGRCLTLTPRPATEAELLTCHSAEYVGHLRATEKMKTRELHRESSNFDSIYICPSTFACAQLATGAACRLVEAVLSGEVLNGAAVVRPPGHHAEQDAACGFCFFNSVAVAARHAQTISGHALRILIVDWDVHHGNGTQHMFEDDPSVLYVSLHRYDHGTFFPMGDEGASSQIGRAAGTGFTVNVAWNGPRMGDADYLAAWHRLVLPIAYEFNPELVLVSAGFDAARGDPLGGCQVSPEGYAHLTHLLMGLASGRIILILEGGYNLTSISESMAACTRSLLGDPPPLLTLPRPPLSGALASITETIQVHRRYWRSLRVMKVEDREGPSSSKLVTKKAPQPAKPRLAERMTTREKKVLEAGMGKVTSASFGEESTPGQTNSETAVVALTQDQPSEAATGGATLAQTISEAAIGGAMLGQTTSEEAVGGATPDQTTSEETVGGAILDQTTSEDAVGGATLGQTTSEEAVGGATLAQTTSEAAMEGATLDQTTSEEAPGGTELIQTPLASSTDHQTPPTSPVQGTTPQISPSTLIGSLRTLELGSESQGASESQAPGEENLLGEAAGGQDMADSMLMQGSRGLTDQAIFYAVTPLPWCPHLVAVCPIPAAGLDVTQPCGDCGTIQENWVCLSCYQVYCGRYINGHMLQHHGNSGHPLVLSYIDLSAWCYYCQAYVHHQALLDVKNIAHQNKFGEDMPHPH
The test can be described thus: Inhibition of HDAC6 (unknown origin) by fluorescence assay.

A further test concerns the target Histone deacetylase 3 (Homo sapiens, UniProt O15379). The test can be described thus: Inhibition of HDAC3 (unknown origin) by fluorescence assay.
The target in a further test is Histone deacetylase 2 (Homo sapiens, UniProt Q92769). Briefly: Inhibition of HDAC2 (unknown origin) by fluorescence assay.
Sequence of Histone deacetylase 2 (Q92769 whole entry): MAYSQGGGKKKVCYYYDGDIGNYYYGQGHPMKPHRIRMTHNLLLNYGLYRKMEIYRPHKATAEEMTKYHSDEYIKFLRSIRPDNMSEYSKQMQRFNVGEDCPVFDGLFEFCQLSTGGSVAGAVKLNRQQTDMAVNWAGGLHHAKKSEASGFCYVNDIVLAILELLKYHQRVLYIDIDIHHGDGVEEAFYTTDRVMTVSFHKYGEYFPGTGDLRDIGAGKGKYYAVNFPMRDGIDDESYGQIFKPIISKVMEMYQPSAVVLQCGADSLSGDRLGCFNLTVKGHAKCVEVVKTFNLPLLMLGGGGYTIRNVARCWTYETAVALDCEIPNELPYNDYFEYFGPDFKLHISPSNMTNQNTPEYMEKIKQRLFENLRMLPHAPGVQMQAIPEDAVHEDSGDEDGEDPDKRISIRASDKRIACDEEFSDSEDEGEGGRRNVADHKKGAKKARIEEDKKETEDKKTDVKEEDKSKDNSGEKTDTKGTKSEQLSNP
Test [4] in a line: Inhibition of HDAC activity in human HeLa nuclear extract.
For test [5], the target named is T2, Histone deacetylase 8. Briefly: Inhibition of human HDAC8 using ZMTFAL as substrate after 90 mins by fluorescence assay.
In test [6] the target is T4, Protein deacetylase HDAC6 (Homo sapiens) (UniProt Q9UBN7).
T4 sequence (whole entry): T3 sequence (Q9UBN7 whole entry)
Briefly: Inhibition of human HDAC6 at 100 uM after 90 mins by fluorescence assay.

The target in test [7] is T1, Histone deacetylase 1. The test can be described thus: Inhibition of human HDAC1 using MAL as substrate at 100 uM after 90 mins by fluorescence assay.

As usually defined, the IC50 is the point on the concentration scale where inhibition reaches its midpoint. The term inhibition denotes the drop in the measured response relative to a control, in per cent. A low value points to a weak effect.

T1 sequence (Q13547 whole entry): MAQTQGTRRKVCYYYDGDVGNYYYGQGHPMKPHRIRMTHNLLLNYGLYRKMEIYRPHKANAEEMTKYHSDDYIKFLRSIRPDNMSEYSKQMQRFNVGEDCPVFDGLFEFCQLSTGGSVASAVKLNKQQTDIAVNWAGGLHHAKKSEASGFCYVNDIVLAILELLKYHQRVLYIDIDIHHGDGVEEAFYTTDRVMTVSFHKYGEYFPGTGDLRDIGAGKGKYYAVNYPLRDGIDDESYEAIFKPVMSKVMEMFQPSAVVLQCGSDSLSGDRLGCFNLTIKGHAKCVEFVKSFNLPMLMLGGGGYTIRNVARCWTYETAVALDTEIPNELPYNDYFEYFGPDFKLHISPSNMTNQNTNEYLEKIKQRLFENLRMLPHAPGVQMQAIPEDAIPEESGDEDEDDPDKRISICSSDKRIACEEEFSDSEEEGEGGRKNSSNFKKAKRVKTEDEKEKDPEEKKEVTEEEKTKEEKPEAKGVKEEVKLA
Sequence of Histone deacetylase 4 (P56524 whole entry): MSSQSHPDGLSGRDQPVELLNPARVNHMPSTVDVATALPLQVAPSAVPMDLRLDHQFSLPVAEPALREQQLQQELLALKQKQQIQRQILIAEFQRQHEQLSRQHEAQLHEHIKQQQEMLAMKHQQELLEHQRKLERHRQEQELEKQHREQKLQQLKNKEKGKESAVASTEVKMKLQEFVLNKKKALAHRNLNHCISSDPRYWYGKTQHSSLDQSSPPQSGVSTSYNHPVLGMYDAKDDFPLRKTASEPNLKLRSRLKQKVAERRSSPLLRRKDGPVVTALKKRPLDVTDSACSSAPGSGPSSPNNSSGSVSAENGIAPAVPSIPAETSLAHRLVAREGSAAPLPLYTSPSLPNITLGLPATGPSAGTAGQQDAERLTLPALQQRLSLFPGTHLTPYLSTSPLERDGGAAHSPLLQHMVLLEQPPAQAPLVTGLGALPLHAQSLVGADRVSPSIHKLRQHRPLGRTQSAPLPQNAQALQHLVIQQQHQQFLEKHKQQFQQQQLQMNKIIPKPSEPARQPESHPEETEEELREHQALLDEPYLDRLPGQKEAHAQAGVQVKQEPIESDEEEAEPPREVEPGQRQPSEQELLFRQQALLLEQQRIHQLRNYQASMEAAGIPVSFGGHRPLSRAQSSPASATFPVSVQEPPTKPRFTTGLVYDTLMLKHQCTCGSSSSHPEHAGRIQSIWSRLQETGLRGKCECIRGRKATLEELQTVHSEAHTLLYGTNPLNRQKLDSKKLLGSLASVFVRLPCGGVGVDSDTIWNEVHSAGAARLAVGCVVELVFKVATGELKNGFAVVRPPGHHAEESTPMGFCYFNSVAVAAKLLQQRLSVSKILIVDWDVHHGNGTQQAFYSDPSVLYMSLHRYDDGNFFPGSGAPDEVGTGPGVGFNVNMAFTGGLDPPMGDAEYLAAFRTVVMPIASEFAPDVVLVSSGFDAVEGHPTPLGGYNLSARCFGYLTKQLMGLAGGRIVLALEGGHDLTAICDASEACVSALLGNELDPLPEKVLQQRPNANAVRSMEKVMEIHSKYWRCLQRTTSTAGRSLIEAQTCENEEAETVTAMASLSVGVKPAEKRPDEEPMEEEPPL
Sequence of Histone deacetylase 3 (O15379 whole entry): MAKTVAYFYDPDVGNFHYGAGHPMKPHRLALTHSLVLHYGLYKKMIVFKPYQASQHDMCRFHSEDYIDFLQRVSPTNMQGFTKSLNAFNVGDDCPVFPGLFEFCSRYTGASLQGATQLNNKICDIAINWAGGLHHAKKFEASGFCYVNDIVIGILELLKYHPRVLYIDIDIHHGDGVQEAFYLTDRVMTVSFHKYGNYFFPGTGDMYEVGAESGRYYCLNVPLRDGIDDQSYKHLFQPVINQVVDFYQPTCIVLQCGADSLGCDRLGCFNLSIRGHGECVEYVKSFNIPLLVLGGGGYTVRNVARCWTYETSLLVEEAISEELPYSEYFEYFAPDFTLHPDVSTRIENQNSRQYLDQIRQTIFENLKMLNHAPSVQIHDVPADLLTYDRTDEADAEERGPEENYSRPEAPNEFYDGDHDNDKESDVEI

Take `O=C(NO)c1cccc(-c2csc(CSc3ccccc3)n2)c1`: the half-inhibitory concentration (IC50) at Histone deacetylase 4 is more than 100 µM; against Histone deacetylase 1 [1], more than 100 µM; on Histone deacetylase 8 [2], 0.15 µM; in test [3], 14 µM; at Histone deacetylase 3, 12 µM; on Histone deacetylase 2, more than 100 µM. The same compound had an IC50 in [4] of more than 100 µM.

With `O=C1Nc2ccccc2/C1=N/NC(=S)Nc1ccc(C(=O)NO)cc1`, the IC50 against Histone deacetylase 8 [5] amounted to 15.7 µM. Besides, the inhibition was 41% in test [6] and less than 10% against Histone deacetylase 1 [7].
